The target in one data set is HIV-1 PR (Human immunodeficiency virus type 1 group M subtype B, UniProt P04585). The data set can be described thus: HIV-protease inhibitory activity assay (FRET peptide substrate). Format: biochemical. As to conditions: Test Example 1. In a few lines:
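HIV-1 PR (0.83 ng) preincubated with compounds 20 min at room temperature in 0.1 mol/L NaAc, 0.5 mol/L NaCl, 1 mmol/L EDTA, 1 mmol/L DTT, 0.05% Tween 20, pH 4.8. Cleavage of HiLyte Fluor 488/QXL 520 FRET peptide (2 μmol/L) read after 60 minutes at 485/535 nm; IC50 from four-parameter logistic fit.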

Data set [1] can be described thus: Evaluation of total body clearance (CLtot), intravenous administration. Format: in vivo, Sprague-Dawley (SD). The conditions noted are these: rat (SD), intravenous administration 0.5-10 mg/kg; CLtot = dose/AUC. In a few lines: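 Plasma levels quantified by LC/MS/MS after intravenous tail-vein dosing (0.5-10 mg/kg, compound-dependent; n=2-3). AUC from pharmacokinetic analysis; total clearance calculated as dose/AUC.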

Data set [2] can be described thus: Protein binding test (equilibrium dialysis, unbound ratio fu in serum). Format: in vitro ADME. As to conditions: rat serum, equilibrium dialysis 24 hours, 37° C., 2 μg/mL. As for the experimental part:
Assay condition: Evaluation method; Equilibrium dialysis method, Reaction time; 24 hours, Reaction temperature; 37° C., Assay concentration; 2 μg/mL A solution of the compound was added to each serum and mixed to prepare the serum samples with above concentration. The serum sample was put into one side of an equilibrium dialysis apparatus with dialysis membrane and phosphate buffered saline (PBS) was also put to another side of the apparatus. The apparatus was incubated at 37° C. for 24 hours. After incubation, the serum and PBS samples were collected and the compound concentrations in both samples were measured by LC/MS/MS. Fu was calculated by dividing the concentration in PBS by the concentration in the serum.

Where only a bound is given, the exact number is not on record here.

For the compound `COc1ccc(S(=O)(=O)N(CC2CCCC2)CC(O)C(Cc2ccc(OCc3cc(C(F)(F)F)ccc3-c3nc4n(c3C(=O)O)CCCC4)cc2)NC(=O)OC2COC3(C)OCCC23)cc1` (stereo not drawn) [Compound I-205], the IC50 – broadly, the midpoint of a concentration-inhibition curve – at HIV-1 PR stood at 2.03 nM. The rat_CLt in data set [1] was determined as 0.101 L/h/kg. The rat_fu in data set [2] is on record as less than 0.1%.

`COc1ccc(S(=O)(=O)N(CC(C)C)CC(O)C(Cc2ccc(OCc3cc(N(C)C)ccc3-c3sc4c(c3C(=O)O)CC(C)(C)CC4)cc2)NC(=O)OC2COC3(C)OCCC23)cc1` (stereo not drawn) [Compound I-206]: it took 3.38 nM to reach half-maximal inhibition against HIV-1 PR (IC50). In addition, the rat_CLt in data set [1] stood at 0.00972 L/h/kg. In addition, the rat_fu in data set [2] was less than 0.1%.

The compound `COc1ccc(S(=O)(=O)N(CC(C)C)C[C@@H](O)[C@H](Cc2ccc(NC3CN(c4ccccc4-c4sc5c(c4C(=O)O)CC(C)(C)CC5)C3)cc2)NC(=O)O[C@H]2CO[C@@]3(C)OCC[C@@H]23)cc1` [Compound I-228] had an IC50 at HIV-1 PR of 3.98 nM. The same compound gave a rat_CLt in data set [1] of 0.00864 L/h/kg. Further, the rat_fu in data set [2] was less than 0.1%.

In turn, `COc1ccc(S(=O)(=O)N(CC(C)C)CC(O)C(Cc2ccc(NCC3=C(c4sc5c(c4C(=O)O)CC(C)(C)CC5)CCCC3)cc2)NC(=O)OC2COC3(C)OCCC23)cc1` (stereo not drawn) [Compound I-231] had an IC50 against HIV-1 PR of 3.91 nM. In addition, in data set [1], the rat_CLt amounted to 0.0612 L/h/kg. Besides, the rat_fu in data set [2] was less than 0.1%.

On HIV-1 PR, `COc1ccc(S(=O)(=O)N(CC(C)C)CC(O)C(Cc2ccc(N3CCC(Oc4ccccc4-c4sc5c(c4C(=O)O)CC(C)(C)CC5)C3)cc2)NC(=O)OC2COC3(C)OCCC23)cc1` (stereo not drawn) [Compound I-234] yielded an IC50 of 3.5 nM. In data set [1], the rat_CLt turned out to be 0.0894 L/h/kg. Further, the rat_fu in data set [2] is listed as less than 0.1%.

The compound `COc1ccc(S(=O)(=O)N(CC(C)C)CC(O)C(Cc2ccc(N3CCC(Oc4ccccc4-c4sc5c(c4C(=O)O)CC(C)(C)CC5)C3)cc2)NC(=O)OC2COC3(C)OCCC23)cc1` (stereo not drawn) [Compound I-235] showed a concentration for half-maximal inhibition (IC50) against HIV-1 PR of 3.56 nM. For the same compound, the rat_CLt in data set [1] worked out at 0.243 L/h/kg. In data set [2], the rat_fu is less than 0.1%.

In the case of `COc1ccc(S(=O)(=O)N(CC(C)C)CC(O)C(Cc2ccc(N(C)CC3=C(c4sc5c(c4C(=O)O)CC(C)(C)CC5)CCCC3)cc2)NC(=O)OC2COC3(C)OCCC23)cc1` (stereo not drawn) [Compound I-236], on HIV-1 PR, the half-inhibitory concentration (IC50) came to 2.9 nM. The same compound returned a rat_CLt in data set [1] of 0.0458 L/h/kg. Further, the rat_fu in data set [2] is recorded as less than 0.1%.

On to `COc1ccc(S(=O)(=O)N(CC(C)C)CC(O)C(Cc2ccc(NC3CCN(c4ccccc4-c4sc5c(c4C(=O)O)CC(C)(C)CC5)C3)cc2)NC(=O)OC2COC3(C)OCCC23)cc1` (stereo not drawn) [Compound I-238], for which 2.52 nM corresponded to half-maximal inhibition on HIV-1 PR (IC50). In data set [1], this compound yielded a rat_CLt of 0.183 L/h/kg. Also, in data set [2], the rat_fu is less than 0.1%.

On HIV-1 PR, `COc1ccc(S(=O)(=O)N(CC(C)C)CC(O)C(Cc2ccc(N(C)CCCc3ccccc3-c3sc4c(c3C(=O)O)CC(C)(C)CC4)cc2)NC(=O)OC2COC3(C)OCCC23)cc1` (stereo not drawn) [Compound I-240] registered an IC50 of 2.02 nM. Further, the rat_CLt in data set [1] worked out at 0.27 L/h/kg. Besides, the rat_fu in data set [2] is less than 0.1%.

Consider `COc1ccc(S(=O)(=O)N(CC(C)C)CC(O)C(Cc2ccc(NC3Cc4cccc(-c5sc6c(c5C(=O)O)CC(C)(C)CC6)c4C3)cc2)NC(=O)OC2COC3(C)OCCC23)cc1` (stereo not drawn) [Compound I-241], for which the half-maximal inhibitory concentration (IC50) against HIV-1 PR was determined as 2.95 nM. Also, the rat_CLt in data set [1] stood at 0.0242 L/h/kg. The rat_fu in data set [2] was less than 0.1%.

For the compound `COc1ccc(S(=O)(=O)N(CC(C)C)CC(O)C(Cc2ccc(NC3Cc4cccc(-c5sc6c(c5C(=O)O)CC(C)(C)CC6)c4C3)cc2)NC(=O)OC2COC3(C)OCCC23)cc1` (stereo not drawn) [Compound I-242], the IC50 on HIV-1 PR was 3.11 nM. The same compound registered a rat_CLt in data set [1] of 0.0245 L/h/kg. Besides, the rat_fu in data set [2] is less than 0.1%.

At HIV-1 PR, `COc1ccc(S(=O)(=O)N(CC(C)C)CC(O)C(Cc2ccc(OCC3=C(c4sc5c(c4C(=O)O)CC(C)(C)CC5)CCCC3)cc2)NC(=O)OC2COC3(C)OCCC23)cc1` (stereo not drawn) [Compound I-243] displayed an IC50 of 4.24 nM. Further, in data set [1], the rat_CLt is 0.0286 L/h/kg. In addition, in data set [2], the rat_fu was less than 0.1%.

With `COc1ccc(S(=O)(=O)N(CC(C)C)C[C@@H](O)[C@H](Cc2ccc(NC[C@H]3CCCC[C@H]3c3sc4c(c3C(=O)O)CC(C)(C)CC4)cc2)NC(=O)O[C@H]2CO[C@@]3(C)OCC[C@@H]23)cc1` [Compound I-247], the IC50 against HIV-1 PR came to 2.25 nM. Further, in data set [1], the rat_CLt was 0.00888 L/h/kg. In addition, in data set [2], the rat_fu is listed as less than 0.1%.

`COc1ccc(S(=O)(=O)N(CC2CCCC2)CC(O)C(Cc2ccc(OCc3nc(C)sc3-c3sc4c(c3C(=O)O)CC(C)(C)CC4)cc2)NC(=O)OC2COC3(C)OCCC23)cc1` (stereo not drawn) [Compound I-248] registered an IC50 at HIV-1 PR of 2.26 nM. The compound also gave a rat_CLt in data set [1] of 0.148 L/h/kg. For the same compound, the rat_fu in data set [2] is less than 0.1%.

Compound `COc1ccc(S(=O)(=O)N(CC(C)C)CC(O)C(Cc2ccc(NCc3ccc(-c4sc5c(c4C(=O)O)CC(C)(C)CC5)cc3)cc2)NC(=O)OC2COC3(C)OCCC23)cc1` (stereo not drawn) [Compound I-253] registered an IC50 on HIV-1 PR of 2.59 nM. The compound also registered a rat_CLt in data set [1] of 0.279 L/h/kg. Also, in data set [2], the rat_fu is listed as less than 0.1%.

As to `COc1ccc(S(=O)(=O)N(CC(C)C)CC(O)C(Cc2ccc(NCc3cc(C#N)ccc3-c3sc4c(c3C(=O)O)CC(C)(C)CC4)cc2)NC(=O)OC2COC3(C)OCCC23)cc1` (stereo not drawn) [Compound I-256], on HIV-1 PR, the IC50 was found to be 2.82 nM. Also, in data set [1], the rat_CLt stood at 0.23 L/h/kg. In addition, the rat_fu in data set [2] is recorded as less than 0.1%.

On to `COc1ccc(S(=O)(=O)N(CC(C)C)CC(O)C(Cc2ccc(NCCCc3ccccc3-c3sc4c(c3C(=O)O)CC(C)(C)CC4)cc2)NC(=O)OC2COC3(C)OCCC23)cc1` (stereo not drawn) [Compound I-260], for which the half-inhibitory concentration (IC50) on HIV-1 PR stood at 2.96 nM. The compound also gave a rat_CLt in data set [1] of 0.0481 L/h/kg. The rat_fu in data set [2] was less than 0.1%.

The compound `COc1ccc(S(=O)(=O)N(CC(C)C)CC(O)C(Cc2ccc(N(C)CCc3ccccc3-c3sc4c(c3C(=O)O)CC(C)(C)CC4)cc2)NC(=O)OC2COC3(C)OCCC23)cc1` (stereo not drawn) [Compound I-261] yielded a concentration for half-maximal inhibition (IC50) against HIV-1 PR of 3.55 nM. The same compound displayed a rat_CLt in data set [1] of 0.167 L/h/kg. The rat_fu in data set [2] is given as less than 0.1%.

Consider `COc1ccc(S(=O)(=O)N(CC(C)C)CC(O)C(Cc2ccc(NCCc3ccccc3-c3sc4c(c3C(=O)O)CC(C)(C)CC4)cc2)NC(=O)OC2COC3(C)OCCC23)cc1` (stereo not drawn) [Compound I-262], for which the IC50 against HIV-1 PR is 3.95 nM. The compound also came in with a rat_CLt in data set [1] of 0.0206 L/h/kg. In data set [2], the rat_fu is given as less than 0.1%.

In the case of `COc1ccc(S(=O)(=O)N(CC(C)C)CC(O)C(Cc2ccc(CN(C)c3ccc(-c4sc5c(c4C(=O)O)CC(C)(C)CC5)cc3)cc2)NC(=O)OC2COC3(C)OCCC23)cc1` (stereo not drawn) [Compound I-265], 5.07 nM corresponded to half-maximal inhibition at HIV-1 PR (IC50). This compound came in with a rat_CLt in data set [1] of 0.241 L/h/kg. Also, the rat_fu in data set [2] is given as less than 0.1%.

On HIV-1 PR, `COc1ccc(S(=O)(=O)N(CC(C)C)CC(O)C(Cc2ccc(CN(C)Cc3ccc(-c4sc5c(c4C(=O)O)CC(C)(C)CC5)cc3)cc2)NC(=O)OC2COC3(C)OCCC23)cc1` (stereo not drawn) [Compound I-267] showed an IC50 of 2.4 nM. This compound displayed a rat_CLt in data set [1] of 0.301 L/h/kg. Further, the rat_fu in data set [2] is reported as less than 0.1%.

Compound `COc1ccc(S(=O)(=O)N(CC(C)C)C[C@@H](O)[C@H](Cc2ccc(OCc3ccccc3C(=O)Nc3sc4c(c3C(=O)O)CC(C)(C)CC4)cc2)NC(=O)O[C@H]2CO[C@@]3(C)OCC[C@@H]23)cc1` [Compound I-268] gave an IC50 on HIV-1 PR of 4.46 nM. In data set [1], this compound had a rat_CLt of 0.00332 L/h/kg. For the same compound, the rat_fu in data set [2] was less than 0.1%.

The record behind these values is patent US20170253607A1, “LONG-ACTING HIV PROTEASE INHIBITOR” (Shionogi & Co., Ltd., priority 2014, published 2017).
